ChEMBL document CHEMBL4765340, “Novel potent antiplatelet thrombotic agent derived from biguanide for ischemic stroke” (Eur J Med Chem, 2020)

How the values were obtained:
[1] = Inhibition of thrombin-induced platelet aggregation in mouse platelet isolated from C57BL/6J mouse treated at 200 mg/kg, ig twice a day for 7 days by lumi-aggregometer; type: functional; settings: po, 168 h, time 7 day
Mus musculus = assay: Antithrombotic activity in collagen-epinephrine induced pulmonary thromboembolism mouse model assessed as protection rate at 200 mg/kg, ig twice a day for 7 days followed by administered collagen-epinephrine relative to control; type: functional; settings: time 7 day
[2] = Cmax in Sprague-Dawley rat at 200 mg/kg, po compound dissolved in DMSO measured after 2 hr by HPLC-MS/MS analysis; type: ADME, organism-based; design: route oral, time 2 hrs, dose 200 mg/kg; settings: in vivo
[3] = Half life in Sprague-Dawley rat at 200 mg/kg, po measured by HPLC-MS/MS analysis; type: ADME, organism-based; settings: in vivo
[4] = Apparent clearance during terminal phase in Sprague-Dawley rat at 200 mg/kg, po measured by HPLC-MS/MS analysis; type: ADME, organism-based; settings: in vivo
[5] = AUC (0 to infinity) in Sprague-Dawley rat at 200 mg/kg, po measured by HPLC-MS/MS analysis; type: ADME, organism-based; design: time infinity, route oral, dose 200 mg/kg; settings: in vivo

Row | Cmax [2] [ng/mL] | half-life [3] [min] | CLz/F [4] [L/h/kg] | AUC(0-inf) [5] [ng·h/mL] | SMILES | inhibition in vivo at 200 mg/kg [1] [%] | Activity (Mus musculus) [%]
1 |  |  |  |  | CN(C)C(=N)NC(=N)NS(=O)(=O)C(F)F | 35.5 | 30
2 |  |  |  |  | CN(C)C(=N)NC(=N)NS(=O)(=O)CCC(F)(F)F | 24.4 | 20
3 |  |  |  |  | CN(C)C(=N)NC(=N)NC(=O)CCC(=O)O | 40.4 | 40
4 |  |  |  |  | CN(C)C(=N)NC(=N)NC(=O)C(F)(F)F | 16.5 | 30
5 |  |  |  |  | CN(C)C(=N)NC(=N)NC(=O)c1ccccc1 | 14.2 | 20
6 |  |  |  |  | CN(C)C(=N)NC(=N)NS(=O)(=O)C1CCCCC1 | 19.5 | 30
7 |  |  |  |  | CN(C)C(=N)NC(=N)NS(=O)(=O)C(Cl)(Cl)Cl | 34.9 | 40
8 |  |  |  |  | CC(C)S(=O)(=O)NC(=N)NC(=N)N(C)C | 28.2 | 40
9 |  |  |  |  | CN(C)C(=N)NC(=N)/N=C/c1cc(O)c(O)c(O)c1 | 7.1 | 0
10 |  |  |  |  | CC(=O)NC(=N)NC(=N)N(C)C | 15.4 | 10
11 |  |  |  |  | CC(=O)Oc1ccccc1C(=O)O [ASPIRIN] | 38.8 | 50
12 |  |  |  |  | CN(C)C(=N)NC(=N)NS(=O)(=O)CC(F)(F)F | 29.3 | 30
13 | 18000 | 194 | 2.54 | 78700 | CN(C)C(=N)NC(=N)N [METFORMIN] | 18.5 | 30
14 |  |  |  |  | CN(C)C(=N)NC(=N)NCc1ccccc1 | 12.1 | 20
15 |  |  |  |  | Cc1ccc(C(=O)NC(=N)NC(=N)N(C)C)cc1 | 18.3 | 20
16 |  |  |  |  | CN(C)C(=N)NC(=N)/N=C/c1ccc(N(C)C)cc1 | 6.2 | 10
17 |  |  |  |  | Cc1ccc(S(=O)(=O)NC(=N)NC(=N)N(C)C)cc1 | 16.5 | 30
18 |  |  |  |  | CCS(=O)(=O)NC(=N)NC(=N)N(C)C | 34.3 | 20
19 |  |  |  |  | CN(C)C(=N)NC(=N)NC(=O)/C=C/C(=O)O | 13.5 | 20
20 |  |  |  |  | CN(C)C(=N)NC(=N)NS(C)(=O)=O | 47.5 | 50
21 |  |  |  |  | CN(C)C(=N)NC(=N)NC(=O)C1CCCCC1 | 24.1 | 20
22 |  |  |  |  | CN(C)C(=N)NC(=N)/N=C/c1ccc(O)cc1 | 11.5 | 10
23 |  |  |  |  | CN(C)C(=N)NC(=N)/N=C/c1ccc(C#N)cc1 | 9.5 | 10
24 |  |  |  |  | CN(C)C(=N)NC(=N)NS(=O)(=O)C(F)(F)C(F)(F)C(F)(F)C(F)(F)F | 9.2 | 20
